We go through one sequence from US20260274922A1, “SYNTHETIC ESTROGEN RECEPTOR (ER)-DERIVED PEPTIDE” (THE TEXAS A&M UNIVERSITY SYSTEM, priority 2023, published 2026).

Where no end group is shown, it is not given here. The star is where a group is joined. FITC = O=C1OC2(c3ccc(O)cc3Oc3cc(O)ccc32)c2ccc(NC(=S)*)cc21

Series [1] has as its system primary mouse hepatocytes. Description: Hepatic glucose production (HGP) in primary hepatocytes upon glucagon treatment. Format: cell-based. The settings on record: WT primary hepatocytes. Here is the method:
Hepatic glucose production. The primary mouse hepatocytes were isolated from 8-12-week-old male mice. Cells were resuspended in DMEM medium (2% FBS and 1% penicillin-streptomycin) for 3 h and cultured in HGP buffer (118 mM NaCl, 2.5 mM CaCl2, 4.8 mM KCl, 25 mM NaHCO3, 1.1 mM KH2PO4, 1.2 mM MgSO4, […], 0.6% BSA, 10 mM HEPES, 10 mM sodium DL-lactate, and 5 mM pyruvate, pH 7.4). Then cells were pretreated with 50 nM glucagon for 30 min, followed by 10 nM insulin treatment for 3 h, and glucose level in the medium was measured using Amplex Red Glucose Assay. The results were normalized by cell protein abundance.

A further series has as its target T1, IRS1 (Homo sapiens, UniProt P35568).
T1 sequence (P35568 1-1242): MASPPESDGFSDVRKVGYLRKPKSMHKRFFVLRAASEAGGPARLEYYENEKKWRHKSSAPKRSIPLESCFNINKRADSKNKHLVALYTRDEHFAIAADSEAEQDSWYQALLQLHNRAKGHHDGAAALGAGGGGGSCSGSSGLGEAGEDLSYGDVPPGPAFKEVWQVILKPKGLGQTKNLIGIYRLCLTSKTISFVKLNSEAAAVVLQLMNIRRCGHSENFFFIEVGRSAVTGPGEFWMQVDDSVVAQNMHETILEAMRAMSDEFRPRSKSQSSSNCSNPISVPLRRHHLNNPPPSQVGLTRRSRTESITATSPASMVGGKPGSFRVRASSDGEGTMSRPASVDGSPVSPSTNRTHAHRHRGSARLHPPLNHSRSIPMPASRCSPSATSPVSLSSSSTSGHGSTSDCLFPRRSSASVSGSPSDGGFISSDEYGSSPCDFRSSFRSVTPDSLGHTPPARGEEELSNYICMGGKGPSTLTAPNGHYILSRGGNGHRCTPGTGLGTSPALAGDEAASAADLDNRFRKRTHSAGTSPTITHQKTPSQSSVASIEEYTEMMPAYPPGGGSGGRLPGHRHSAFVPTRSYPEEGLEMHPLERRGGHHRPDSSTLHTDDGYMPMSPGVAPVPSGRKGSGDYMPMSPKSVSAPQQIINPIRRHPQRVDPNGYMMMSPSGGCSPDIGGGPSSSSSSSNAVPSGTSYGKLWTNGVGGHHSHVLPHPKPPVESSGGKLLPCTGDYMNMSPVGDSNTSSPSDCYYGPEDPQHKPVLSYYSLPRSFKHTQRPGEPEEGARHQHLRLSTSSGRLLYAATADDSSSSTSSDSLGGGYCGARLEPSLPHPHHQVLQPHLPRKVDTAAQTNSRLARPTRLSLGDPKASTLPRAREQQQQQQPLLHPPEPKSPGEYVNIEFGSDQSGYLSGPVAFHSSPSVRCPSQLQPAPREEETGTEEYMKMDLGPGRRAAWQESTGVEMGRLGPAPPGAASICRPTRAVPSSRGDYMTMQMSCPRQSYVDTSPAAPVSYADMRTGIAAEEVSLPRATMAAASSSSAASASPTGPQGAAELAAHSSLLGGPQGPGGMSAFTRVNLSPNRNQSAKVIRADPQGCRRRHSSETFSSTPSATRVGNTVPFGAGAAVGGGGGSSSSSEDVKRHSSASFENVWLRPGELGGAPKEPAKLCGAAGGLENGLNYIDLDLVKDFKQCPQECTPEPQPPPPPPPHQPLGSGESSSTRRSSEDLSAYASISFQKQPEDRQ
Description: Effect of AF1 peptide on IRS1 ubiquitination in HEK293T cells. The class given is cell-based. From the text: (§1) Co-immunoprecipitation and Western blotting analysis. […] Protein bands were detected using a ChemiDoc image system.

The test system of the next series is db/db mice. Format: in vivo, mouse. Here is the method: Obese mouse models and AF1 peptide treatment. For the high-fat diet (HFD)-induced obese mouse model, the 6-8-week-old male mice were fed with HFD (HFD; 60% kcal from fat, D12492; Research diet, New Brunswick, NJ) for 11 weeks. Then mice received 5 mg/kg body weight control or AF1 peptide through retro orbital injection (twice per week; 5 weeks). For genetic obesity mouse model, the 8-week-old db/db mice were administered with 5 mg/kg body weight control or AF1 peptide through retro orbital injection (twice per week; 5 weeks). Glucose tolerance and insulin tolerance tests were performed in the fourth and fifth week after treatment, respectively. Body composition was measured using EchoMRI™ one day before sacrificing the mice.
Glucose and insulin tolerance tests. For glucose tolerance tests, mice were fasted for 16 h and intraperitoneally (i.p.) injected with dextrose (1 g/kg body weight for mice fed with regular diet; 0.5 g/kg body weight for db/db mice or mice fed with HFD). For insulin tolerance tests, mice were fasted for 6 h and i.p. injected with insulin solution (1 U/kg body weight for male mice; 0.75 U/kg body weight for female mice). Blood glucose levels were measured using glucometer at indicated time points.
Hematoxylin and eosin staining and Oil Red O staining. Livers were embedded into paraffin after being fixed by PFA, and then cut into 5 μm sections. After deparaffinization and hydration, liver sections were stained with hematoxylin for 5 min. After differentiation by 1% acid alcohol, liver sections were stained with 1% eosin for 3 min. Finally, liver sections were dehydrated and mounted with mounting media. For Oil Red O staining, liver frozen sections were prepared and fixed in 10% neutral buffered formalin for 10 min after air dry for 1 h. Liver sections were stained in Oil Red O working solution for 15 min after a quick dip in 60% isopropanol. Liver sections were then stained with hematoxylin for 3 min and covered with aqueous mounting gel. Liver sections were observed using slide scanner (Leica).
as §1
Serum lipid profile analysis. Serum triglyceride, AST, ALT, cholesterol, LDL, HDL, NEFA, and ALP were measured using DxC 700 AU Chemistry Analyzer (Beckman Coulter).
Serum insulin and liver triglyceride analysis. Serum insulin and triglyceride levels were measured by using mouse insulin ELISA kit (Mercodia) and triglyceride assay kit (Abcam), respectively. […]

Where [2] appears, read: db/db mice, 5 mg/kg twice per week, 5 weeks.
[3] abbreviates: db/db mice, 5 mg/kg twice per week, 5 weeks, vs CNTR.

In the case of “YGRKKRRQRRRTKASGMALLHEPLNRPQLKIPLERDSSKPAVYNY ({FITC}-YGRKKRRQRRRTKASGMALLHEPLNRPQLKIPLERDSSKPAVYNY) [AF1 peptide]”, the “glucagon-induced hepatic glucose production (HGP)” value in series [1] is “did not impair”. For the same sequence, the “enhancement of insulin-mediated suppression of HGP” value in series [1] (under glucagon challenge) amounted to 22%. Moreover, in the series with IRS1, the “ubiquitination of IRS1” value was “attenuated”. Also, in the series with db/db mice (db/db mice), the liver triglycerides result is “decreasing trend”, the “serum HDL” value is “significantly reduced”, the “serum LDL” value was “significantly reduced” and the “serum NEFA” value was “significantly reduced”. In the series on db/db mice (db/db mice), the serum cholesterol entry is given as “significantly reduced”, the serum insulin result is “limited effect” and the serum triglycerides entry is “decreasing trend”. For the same sequence, in the series with db/db mice (setting [2]), the “overnight fasting blood glucose” value was determined as 103.8 ± 3.6 mg/dL and the “random feeding blood glucose” value is 360.7 ± 25.1 mg/dL. Besides, in the series on db/db mice (setting [3]), the “decrease in overnight fasting blood glucose” value turned out to be 35% and the “reduction in random feeding blood glucose” value was found to be 22%. In the series with db/db mice (db/db mice, H&E and Oil Red O staining), the “liver steatosis (steatosis structure and liver fat amount)” value was “significantly decreased”. The “blood glucose upon glucose or insulin challenge” value in the series with db/db mice (db/db mice, glucose and insulin tolerance tests) is recorded as “significantly decreased”. Moreover, in the series with db/db mice (db/db mice, liver), the “decrease in pIRS1-S302” value amounted to 61%, the “increase in IRS1” value is listed as 114%, the “increase in pAKT-S473” value amounted to 98% and the “increase in pAKT-T308” value is on record as 101%. Also, the “pAKT-S473 and pAKT-T308” value in the series with db/db mice (db/db mice, skeletal muscle and epididymal fat tissues) was “significantly increased”. In addition, in the series with db/db mice (mouse, in vivo), the “serum ALP” value is given as “limited effect”, the “serum ALT” value is on record as “limited effect” and the “serum AST” value is given as “significantly reduced”.
